In PubChem BioAssay AID1259408 (Genetic Toxicology Data Bank (GENE-TOX), 2018):
The source made the active and inactive calls. The rule behind the calls is not given here.

Test system: GENE-TOX genotoxicity assays, various organisms and cells
Experiment: GENE-TOX mutagenicity studies
Conditions: for call: Assay Type: In vivo carcinogenicity studies, Assay Code: CCG+
[1] = Species/Cell Type: Bacillus subtilis (H17 vs M45), Assay Type: Rec-assay, spot test, DNA effects (bacterial DNA repair), Assay Code: REWT, Evaluation Type: Evaluation A (Pre-1980)
[2] = Species/Cell Type: Drosophila melanogaster, Assay Type: Sex-linked recessive lethal gene mutation, Assay Code: SRL-, Evaluation Type: Evaluation A (Pre-1980)
[3] = Species/Cell Type: Nonhuman, Assay Type: Sister-chromatid exchange (SCE) in vitro, Assay Code: SC2T, Evaluation Type: Evaluation B (Post-1980)
[4] = Species/Cell Type: Saccharomyces cerevisiae, Assay Type: Mitotic recombination or gene conversion, Assay Code: YEH-, Evaluation Type: Evaluation A (Pre-1980)
[5] = Species/Cell Type: Salmonella typhimurium (one or more of the five standard strains: TA98, TA100, TA1535, TA1537, and TA1538), Assay Type: Histidine reverse gene mutation, Ames assay, Assay Code: SAL-, Evaluation Type: Evaluation A (Pre-1980)
[6] = Species/Cell Type: Human, Sex: Male, Assay Type: Sperm morphology, Assay Code: SPHT, Evaluation Type: Evaluation A (Pre-1980)
[7] = Species/Cell Type: Nonhuman, Evaluation Type: Evaluation A (Pre-1980)
[8] = Species/Cell Type: Salmonella typhimurium (one or more of the five standard strains: TA98, TA100, TA1535, TA1537, and TA1538), Assay Type: Histidine reverse gene mutation, Ames assay, Assay Code: SAL+, Evaluation Type: Evaluation A (Pre-1980)
[9] = Species/Cell Type: Allium cepa, Assay Type: Chromosome aberrations, Assay Code: ALC+D, Dose Response: With dose response, Evaluation Type: Evaluation A (Pre-1980)

In the case of CCOP(=S)(OCC)SCCSCC, the mutagenic call [1] is reported as “no conclusion”, the mutagenic call [2] is reported as “inactive; negative” and the mutagenic call (Species/Cell Type: Escherichia coli polA (W3119 vs P3478), Assay Type: Rec-assay, DNA effects (bacterial DNA repair), Assay Code: RE1T, Evaluation Type: Evaluation A (Pre-1980)) is reported as “no conclusion”. The mutagenic call (Species/Cell Type: Hordeum vulgare (barley), Assay Type: Chromosome aberrations, Assay Code: HOC+D, Dose Response: With dose response, Evaluation Type: Evaluation A (Pre-1980)) was “active; positive”, the mutagenic call (Species/Cell Type: Human diploid fibroblasts, Assay Type: Unscheduled DNA synthesis (UDS) in vitro, DNA effects, Assay Code: UDH+/-*, Activation: With metabolic activation, Evaluation Type: Evaluation A (Pre-1980)) was “inactive; positive without activation, negative with activation” and the mutagenic call [3] was “no conclusion”. The mutagenic call [4] was “inactive; negative” and the mutagenic call [5] was “inactive; negative”.
For Cc1c([N+](=O)[O-])cc[n+]([O-])c1C, the mutagenic call (Species/Cell Type: Escherichia coli polA (W3119 vs P3478), Assay Type: Rec-assay, DNA effects (bacterial DNA repair), Assay Code: RE1+, Evaluation Type: Evaluation A (Pre-1980)) was “active; positive”.
CCC(=O)C(CC(C)N(C)C)(c1ccccc1)c1ccccc1 (stereo unspecified) was tested, and the mutagenic call [2] was “inactive; negative”, the mutagenic call (Species/Cell Type: Drosophila melanogaster, Sex: Male, Assay Type: Heritable translocation test, chromosome aberrations, Assay Code: DHT-, Evaluation Type: Evaluation A (Pre-1980)) was “inactive; negative” and the mutagenic call [6] was “no conclusion”.
In the case of ClC1(Cl)C2(Cl)C3(Cl)C4(Cl)C(Cl)(Cl)C5(Cl)C3(Cl)C1(Cl)C5(Cl)C24Cl (stereo unspecified), the call [7] is reported as “active; positive” and the mutagenic call (Species/Cell Type: Rodents, Sex: Male, Assay Type: Dominant lethal test, Assay Code: DLT-, Evaluation Type: Evaluation A (Pre-1980)) is reported as “inactive; negative”.
c1ccc2cc3c(cc2c1)-c1cccc2cccc-3c12 was tested, and the call [7] was “active; positive”.
O=C(NC(=O)c1c(F)cccc1F)Nc1ccc(Cl)cc1 was tested, and the mutagenic call (Species/Cell Type: Mammalian polychromatic erythrocytes, Assay Type: Micronucleus test, chromosome aberrations, Assay Code: MNTT, Evaluation Type: Evaluation A (Pre-1980)) was “no conclusion”, the mutagenic call (Species/Cell Type: Mouse lymphoma (L5178Y) cells, Assay Type: Forward gene mutation at the thymidine kinase (TK) locus, chromosome aberrations, Assay Code: L51T, Evaluation Type: Evaluation A (Pre-1980)) was “no conclusion” and the mutagenic call [5] was “inactive; negative”.
O=Cc1ccccc1[N+](=O)[O-] was tested, and the mutagenic call [8] was “active; positive”.
With O=C1c2c(O)ccc(O)c2C(=O)c2c(NCCc3ccccc3)ccc(NCCc3ccccc3)c21 the mutagenic call (Species/Cell Type: Salmonella typhimurium (one or more of the five standard strains: TA98, TA100, TA1535, TA1537, and TA1538), Assay Type: Histidine reverse gene mutation, Ames assay, Assay Code: SAL+/-*, Activation: With metabolic activation, Evaluation Type: Evaluation A (Pre-1980)) was “inactive; positive without activation, negative with activation”.
With O=[N+]([O-])c1ccc(-c2nc(N3CCOCC3)c3ccccc3n2)s1 the mutagenic call [8] was “active; positive”.
Cc1cc(O)ccc1C1(c2ccc(O)cc2C)OS(=O)(=O)c2ccccc21 was tested, and the mutagenic call [9] was “active; positive”.
In the case of O=C(O)C1(O)C[C@@H](O)C(O)[C@H](O)C1 (stereo partly specified), the mutagenic call [5] is reported as “inactive; negative”.
In the case of CS(=O)(=O)OC[C@@H](O)[C@@H](O)[C@H](O)[C@H](O)COS(C)(=O)=O, the mutagenic call (Species/Cell Type: Drosophila melanogaster, Assay Type: Sex-linked recessive lethal gene mutation, Assay Code: SRL+, Evaluation Type: Evaluation A (Pre-1980)) is reported as “active; positive”.
With CN[C@H]1CCc2cc(OC)c(OC)c(OC)c2-c2ccc(OC)c(=O)cc21 the mutagenic call (Species/Cell Type: Drosophila melanogaster, Assay Type: Aneuploidy, sex chromosome gain, chromosome aberrations, Assay Code: DAG+F, Evaluation Type: Evaluation A (Pre-1980)) was “active; positive”, the mutagenic call (Species/Cell Type: Drosophila melanogaster, Assay Type: Aneuploidy, whole sex chromosome loss, chromosome aberrations, Assay Code: DAC+F, Evaluation Type: Evaluation A (Pre-1980)) was “active; positive” and the mutagenic call (Species/Cell Type: Human lymphocytes, Assay Type: Sister-chromatid exchange (SCE) in vitro, Assay Code: SCLT, Evaluation Type: Evaluation B (Post-1980)) was “no conclusion”. For the same compound, the mutagenic call (Species/Cell Type: Human, Assay Type: Sister-chromatid exchange (SCE) in vitro, Assay Code: SC1T, Evaluation Type: Evaluation B (Post-1980)) was “no conclusion”, the mutagenic call (Species/Cell Type: Mammalian polychromatic erythrocytes, Assay Type: Micronucleus test, chromosome aberrations, Assay Code: MNT+, Evaluation Type: Evaluation A (Pre-1980)) was “active; positive” and the mutagenic call [3] was “no conclusion”.
In the case of Cc1cc(O)c2c(c1O)C(=O)c1cc(O)cc(O)c1C2=O, the mutagenic call [8] is reported as “active; positive”.
In the case of CCOC(C)=O, the mutagenic call [1] is reported as “no conclusion” and the mutagenic call (Species/Cell Type: Mammalian polychromatic erythrocytes, Assay Type: Micronucleus test, chromosome aberrations, Assay Code: MNT-, Evaluation Type: Evaluation B (Post-1980)) is reported as “inactive; negative”.
For CC(COc1ccc(C(C)(C)C)cc1)OS(=O)OCCCl (stereo unspecified), the call [7] was “active; positive”.
With NC(Cc1c[nH]c2ccccc12)C(=O)O (stereo unspecified) the mutagenic call (Species/Cell Type: Human, Sex: Male, Assay Type: Sperm morphology, Assay Code: SPH-, Evaluation Type: Evaluation A (Pre-1980)) was “inactive; negative”.
For CCN(CC)CC(O)CNc1c2ccc(Cl)cc2nc2ccc(OC)cc12 (stereo unspecified), the mutagenic call (Species/Cell Type: Mammalian polychromatic erythrocytes, Assay Type: Micronucleus test, chromosome aberrations, Assay Code: MNT+U, Dose Response: Unconfirmed positive response, Evaluation Type: Evaluation A (Pre-1980)) was “active; positive”.
Nc1ccc2c(c1)-c1ccccc1C2 was tested, and the mutagenic call (Species/Cell Type: Fischer rat embryo (RLV/1706) cells, Assay Type: Cell transformation, viral enhanced, Assay Code: CTR-, Evaluation Type: Evaluation A (Pre-1980)) was “inactive; negative”.
In the case of Nc1ncnc2c1ncn2[C@H]1C[C@H](O)[C@@H](CO)O1, the mutagenic call (Species/Cell Type: Glycine max (soybean), Assay Type: Gene mutation, Assay Code: GLM-, Evaluation Type: Evaluation A (Pre-1980)) is reported as “inactive; negative” and the mutagenic call [3] is reported as “no conclusion”.
In the case of CC(=O)Nc1nc(/C=C/c2ccc([N+](=O)[O-])o2)cs1, the mutagenic call [8] is reported as “active; positive”.
For Oc1ccc2ccccc2c1N=Nc1ccc(N=Nc2ccccc2)cc1, the mutagenic call (Species/Cell Type: Bacillus subtilis (H17 vs M45T), Assay Type: Rec-assay, spot test, DNA effects (bacterial DNA repair), Assay Code: REXT, Evaluation Type: Evaluation A (Pre-1980)) was “no conclusion”.
For COC1=C(OC)C(=O)C(C/C=C(\C)CC/C=C(\C)CC/C=C(\C)CC/C=C(\C)CC/C=C(\C)CC/C=C(\C)CCC=C(C)C)=C(C)C1=O, the mutagenic call [6] was “no conclusion”.
With C=CCOC(=O)CC(C)C the call [7] was “active; positive”.
C/C(=C/c1ccc(SC#N)cc1)[N+](=O)[O-] was tested, and the mutagenic call (Species/Cell Type: Bacillus subtilis (H17 vs M45), Assay Type: Rec-assay, spot test, DNA effects (bacterial DNA repair), Assay Code: REW+, Evaluation Type: Evaluation A (Pre-1980)) was “active; positive”.
For CCn1c(=O)n(C)c2c(=O)n(C)c(=O)n(C)c21, the mutagenic call [9] was “active; positive”.
In the case of CCOc1ccccc1C(N)=O, the mutagenic call (Species/Cell Type: Human, Assay Type: Sister-chromatid exchange (SCE) in vitro, Assay Code: SC1+, Evaluation Type: Evaluation B (Post-1980)) is reported as “active; positive”.
CCCCCC[C@@H](O)[C@@H]1C2=C(C[C@H]([C@H](O)[C@@H]3CC=CC(=O)O3)CC3=C(C(=O)OC3=O)[C@@H]1O)C(=O)OC2=O was tested, and the mutagenic call (Species/Cell Type: Bacillus subtilis (H17 vs M45), Assay Type: Rec-assay, spot test, DNA effects (bacterial DNA repair), Assay Code: REW-, Evaluation Type: Evaluation A (Pre-1980)) was “inactive; negative”, the mutagenic call (Species/Cell Type: Rodents, Sex: Male, Assay Type: Dominant lethal test, Assay Code: DLT+, Evaluation Type: Evaluation A (Pre-1980)) was “active; positive” and the mutagenic call [4] was “inactive; negative”. For the same compound, the mutagenic call (Species/Cell Type: Salmonella typhimurium (one or more of the five standard strains: TA98, TA100, TA1535, TA1537, and TA1538), Assay Type: Histidine reverse gene mutation, Ames assay, Assay Code: SALT, Evaluation Type: Evaluation A (Pre-1980)) was “no conclusion”.
O=S1(=O)OCCO1 was tested, and the mutagenic call [8] was “active; positive” and the mutagenic call (Species/Cell Type: Salmonella typhimurium, Assay Type: Forward and reverse gene mutation, host-mediated assay, Assay Code: HMA+, Evaluation Type: Evaluation A (Pre-1980)) was “active; positive”.
O=P(N1CC1)(N1CC1)N1CCN(P(=O)(N2CC2)N2CC2)CC1 was tested, and the mutagenic call (Species/Cell Type: Human lymphocytes, Assay Type: Sister-chromatid exchange (SCE) in vitro, Assay Code: SCL+D, Dose Response: With dose response, Evaluation Type: Evaluation B (Post-1980)) was “active; positive”, the mutagenic call (Species/Cell Type: Human, Assay Type: Sister-chromatid exchange (SCE) in vitro, Assay Code: SC1+D, Dose Response: With dose response, Evaluation Type: Evaluation B (Post-1980)) was “active; positive” and the mutagenic call (Species/Cell Type: Nonhuman, Assay Type: Sister-chromatid exchange (SCE) in vitro, Assay Code: SC2+D, Dose Response: With dose response, Evaluation Type: Evaluation B (Post-1980)) was “active; positive”.
For Nc1ccc(-c2ccc(N)cc2Cl)c(Cl)c1, the mutagenic call (Species/Cell Type: Human diploid fibroblasts, Assay Type: Unscheduled DNA synthesis (UDS) in vitro, DNA effects, Assay Code: UDH+*, Activation: With metabolic activation, Evaluation Type: Evaluation A (Pre-1980)) was “active; positive”.
